Results as given in a melting point compilation (Tetko et al.; mined from patent text by program, amines drawn as free bases though some values may be those of a salt).

Row | SMILES | melting point
1 | CC(C)(CO)n1c(Cc2ccccc2)nc2c(Cl)nc3ccccc3c21 | 262 to 266 °C
2 | c1cc(CC[C@H]2CNCCN2)ccn1 | 113 to 116 °C
3 | CC(=O)Oc1ccc2cccc(O)c2n1 | 240 to 241 °C
4 | CC(=O)OCc1ccc(C=O)cc1 | 32 °C
5 | COC(=O)c1cc(Cl)c(NC(C)=O)cc1OC1CCOC1=O (centres undefined) | 118 to 119 °C
6 | Cc1ccc(Nc2nnc(-c3cccc(OCc4ccccc4)c3)s2)cc1Cl | 211 to 212 °C
7 | CCCCCCCCCCCCCCOc1ccc(CCN(C(C)=O)c2cccc(Cc3nccs3)c2)cc1 | 46 to 50 °C
8 | O=C(NCc1ccc(Cl)cc1)c1cn2c3c(cc(CN4CCOCC4)cc3c1=O)N=C(NCc1ccccc1)C2 | 235 to 240 °C
9 | O=C(CS(=O)Cc1ccco1)C12CC3CC(CC(C3)C1)C2 (centres undefined) | 75 to 79 °C
10 | CN(C)c1cc2nc(C(C)(C)C)sc2cc1[N+](=O)[O-] | 65 to 68 °C
11 | FC(F)(F)c1ccc(Cn2cnc3c(-c4ccco4)ncnc32)cc1 | 159 to 161 °C
12 | COc1cccc(-n2c(=O)[nH]c3c(C(N)=O)nc(-c4cccc(O)c4)nc32)c1F | > 260 °C
13 | COC1(OC)CCC(O)(c2ccc(C)cc2)CC1 | 93 to 97 °C
14 | Nc1ccccc1-c1cc2ccc(Cl)cc2[nH]c1=O | 155 to 157 °C
15 | COC(=O)/C=C/c1ccc(CC(C)NCC(O)c2cccc(F)c2)cc1 (centres undefined) | 75 to 110 °C
16 | CC(C)(CO)NS(=O)(=O)c1cc(NC(=O)c2cnn3c(C(F)(F)F)cc(-c4ccc(C(F)(F)F)cc4)nc23)c(Cl)s1 | 223 °C
17 | CCCN1C(=O)N2C[C@@H](Cc3ccccc3)N=C2c2[nH]c(COCc3ccccc3)nc21 | 130 to 132 °C
18 | N#Cc1ccc(OCc2ccsc2)cc1OC(C(=O)O)c1ccccc1F (racemic) | 159 to 161 °C
19 | CN(C)c1nc2c(c(N3CCN(Cc4ccccc4)CC3)n1)SCCC2 | 106 to 108 °C
20 | COC(=O)C(Cc1ccc(OCC(=O)Nc2ccc(Oc3ccc(C45CC6CC(CC(C6)C4)C5)cc3)cc2N(C)C(=O)OC(C)(C)C)cc1)OCc1ccc(F)cc1 (centres undefined) | 52 to 56 °C
21 | C=CCOc1ccc2c(c1CC=C)NC(=O)CC2 | 119 to 121 °C

Continued, values first:

Row | melting point | SMILES
22 | 173 to 174 °C | CCN1C(=O)C(=O)N(c2cc(Cl)ccc2C)C1=S
23 | 127 to 130 °C | O=C(NCC1Cc2c(Cl)cc3c(c2O1)CCC3)OCc1ccccc1 (centres undefined)
24 | 145 to 151 °C | COc1ccc(-c2cnc3cc4cnn(C[C@@H]5COC(C)(C)O5)c4cc3n2)cc1F
25 | 219 to 221 °C | O=C(CC1CCCCC1)Nc1c(Cl)ccc2nc(N3CC[C@@H](O)C3)ccc12
26 | 168 °C | CCCOC(=O)C1=C(N)NC(C)=C(C(=O)OCC)C1c1cccc([N+](=O)[O-])c1 (centres undefined)
27 | 97.7 °C | CC(=O)Oc1c(C(C)(C)C)cc2c(c1C(C)(C)C)CC(C)(C)O2
28 | 203 to 205 °C | CC(C#N)(Cn1ncc2cc([N+](=O)[O-])ccc21)NC(=O)c1ccc(OC(F)(F)F)cc1 (centres undefined)
29 | 64 to 65 °C | CCOC(=O)CCN=c1sc2ccc(Cl)cc2s1
30 | 156 to 174 °C | CC1CC2C3CCC4=CC(=O)C=CC4(C)C3=CCC2(C)C1C(=O)CN1CCN(c2cc(N3CCC4(CC3)OCCO4)nc(N3CCC4(CC3)OCCO4)n2)CC1 (centres undefined)
31 | 79 to 80 °C | COC(=O)C1=C(OC)c2ccccc2S(=O)(=O)N1C
32 | 190 to 192 °C | c1ccc2c(c1)CCN(Cc1c[nH]c3ncccc13)C2
33 | 62 to 68.5 °C | CCC1OCC(O)CO1 (centres undefined)
34 | 143 to 147 °C | COc1cccc(CCC(=O)O)c1C
35 | 70 °C | O=C1c2ccccc2SC12CC2
36 | 158 to 160 °C | Cc1ccc(-c2cc(C(F)(F)F)nn2-c2ccc(S(=O)(=O)NOC(C)C(=O)O)cc2)cc1 (single isomer, unassigned; (-))
37 | 164 to 165 °C | CC(=O)NC(=O)c1ccc(OCCn2ccnc2)cc1
38 | 228 to 230 °C | O=C(Nc1ccc(C(=O)N2Cc3cccn3Cc3ccccc32)cc1)c1ccccc1Cl
39 | 56 to 58 °C | CC(C)CCC(C)(C#N)N=NC(C)(C#N)CCC(C)C (centres undefined)
